Laboratory results as given in patent publication US20150011423A1, “MEANS AND METHODS FOR ASSESSING KIDNEY TOXICITY” (BASF SE, priority 2011, published 2015).
Marks after values point to notes of the source that are not given here.

Test system: rats
Assay: 28-day repeated dose study in rats with mass spectrometry-based plasma metabolite profiling (GC-MS, LC-MS, SPE-LC-MS); treatment ratios versus control
Conditions: plasma
[1] = male rats, day 7, high dose, Table 7a interstitial nephritis
[2] = male rats, day 7, high dose, Table 7b interstitial nephritis
[3] = male rats, day 14, high dose, Table 7a interstitial nephritis
[4] = male rats, day 14, high dose, Table 7b interstitial nephritis
[5] = male rats, day 28, high dose, Table 7a interstitial nephritis
[6] = male rats, day 28, high dose, Table 7b interstitial nephritis
[7] = female rats, day 28, high dose, Table 5a tubular necrosis
[8] = female rats, day 28, high dose, Table 5b tubular necrosis
[9] = male rats, day 28, high dose, Table 8a direct tubular effect
[10] = male rats, day 28, high dose, Table 8b direct tubular effect

`CCc1ccccc1` [Ethyl benzene, Ethylbenzene] was tested, and the “Creatine, treatment ratio versus control” value [1] was 1.4 *, the “Creatinine, treatment ratio versus control” value [1] was 1.41 * and the “Eicosanoic acid (C20:0), treatment ratio versus control” value [1] was 1.41 *. For the same molecule, the “Glucuronic acid, treatment ratio versus control” value [1] was 1.08^, the “Lignoceric acid (C24:0), treatment ratio versus control” value [1] was 1.31 * and the “Phosphatidylcholine (C18:2, C20:4), treatment ratio versus control” value [1] was 1.05 *. The “Serine, treatment ratio versus control” value [1] was 1.12 *, the “Sphingomyelin (d18:1, C16:0), treatment ratio versus control” value [1] was 1.69 * and the “Threonine, treatment ratio versus control” value [1] was 1.31 *. For the same molecule, the “myo-Inositol-2-phosphate, treatment ratio versus control” value [1] was 1.39 *, the “Glycerol, polar fraction, treatment ratio versus control” value [2] was 0.98^ and the “Isopalmitic acid (C16:0), treatment ratio versus control” value [2] was 0.55 *. For the same molecule, the “Kynurenic acid, treatment ratio versus control” value [2] was 0.71 *, the “Creatine, treatment ratio versus control” value [3] was 1.35 * and the “Creatinine, treatment ratio versus control” value [3] was 1.58 *. For the same molecule, the “Eicosanoic acid (C20:0), treatment ratio versus control” value [3] was 1.3 *, the “Glucuronic acid, treatment ratio versus control” value [3] was 1.17 * and the “Lignoceric acid (C24:0), treatment ratio versus control” value [3] was 1.55 *. The “Phosphatidylcholine (C18:2, C20:4), treatment ratio versus control” value [3] was 1.06 *, the “Serine, treatment ratio versus control” value [3] was 1.5 * and the “Sphingomyelin (d18:1, C16:0), treatment ratio versus control” value [3] was 1.5 *. For the same molecule, the “Threonine, treatment ratio versus control” value [3] was 1.72 *, the “myo-Inositol-2-phosphate, treatment ratio versus control” value [3] was 0.88^ and the “Glycerol, polar fraction, treatment ratio versus control” value [4] was 0.87^. The “Isopalmitic acid (C16:0), treatment ratio versus control” value [4] was 0.57 *, the “Kynurenic acid, treatment ratio versus control” value [4] was 0.83 * and the “Creatine, treatment ratio versus control” value [5] was 1.34 *. The “Creatinine, treatment ratio versus control” value [5] was 1.33 *, the “Eicosanoic acid (C20:0), treatment ratio versus control” value [5] was 1.76 * and the “Glucuronic acid, treatment ratio versus control” value [5] was 1.26 *. For the same molecule, the “Lignoceric acid (C24:0), treatment ratio versus control” value [5] was 1.23 *, the “Phosphatidylcholine (C18:2, C20:4), treatment ratio versus control” value [5] was 1.05^ and the “Serine, treatment ratio versus control” value [5] was 1.54 *. For the same molecule, the “Sphingomyelin (d18:1, C16:0), treatment ratio versus control” value [5] was 1.48 *, the “Threonine, treatment ratio versus control” value [5] was 2.44 * and the “myo-Inositol-2-phosphate, treatment ratio versus control” value [5] was 1.3 *. For the same molecule, the “Glycerol, polar fraction, treatment ratio versus control” value [6] was 0.75 *, the “Isopalmitic acid (C16:0), treatment ratio versus control” value [6] was 0.59 * and the “Kynurenic acid, treatment ratio versus control” value [6] was 0.8 *.

With `ClC(Cl)=C(Cl)C(Cl)=C(Cl)Cl` [Hexachlorobutadiene] the “Docosahexaenoic acid (C22:cis[4,7,10,13,16,19]6), treatment ratio versus control” value [7] was 1.19 *, the “Docosapentaenoic acid (C22:cis[7,10,13,16,19]5), treatment ratio versus control” value [7] was 1.61 * and the “Eicosanoic acid (C20:0), treatment ratio versus control” value [7] was 1.56 *. For the same molecule, the “Glycerol, lipid fraction, treatment ratio versus control” value [7] was 1.29 *, the “Leucine, treatment ratio versus control” value [7] was 1.34 * and the “Phosphate (inorganic and organic phosphates), treatment ratio versus control” value [7] was 1.19 *. For the same molecule, the “Hippuric acid, treatment ratio versus control” value [8] was 0.35 *, the “Lactate, treatment ratio versus control” value [8] was 0.62 * and the “Glycerol-3-phosphate, polar fraction, treatment ratio versus control” value [9] was 1.58 *. The “Isoleucine, treatment ratio versus control” value [9] was 1.11 *, the “Leucine, treatment ratio versus control” value [9] was 1.17 * and the “Lysophosphatidylethanolamine (C22:0), treatment ratio versus control” value [9] was 1.33 *. The “Ornithine, treatment ratio versus control” value [9] was 1.35 *, the “TAG No 02, treatment ratio versus control” value [9] was 1.47 * and the “Threonine, treatment ratio versus control” value [9] was 1.3 *. For the same molecule, the “14-Methylhexadecanoic acid, treatment ratio versus control” value [10] was 0.82 *, the “16-Methylheptadecanoic acid, treatment ratio versus control” value [10] was 0.51 * and the “18-Hydroxy-11-deoxycorticosterone, treatment ratio versus control” value [10] was 0.49 *. For the same molecule, the “Citrate, treatment ratio versus control” value [10] was 0.93 *, the “DAG (C18:1, C18:2), treatment ratio versus control” value [10] was 0.66 * and the “Elaidic acid (C18:trans[9]1), treatment ratio versus control” value [10] was 0.8 *. For the same molecule, the “Isopalmitic acid (C16:0), treatment ratio versus control” value [10] was 0.61 *, the “Ketoleucine, treatment ratio versus control” value [10] was 0.91 * and the “Linolenic acid (C18:cis[9,12,15]3), treatment ratio versus control” value [10] was 0.6 *. For the same molecule, the “Lysophosphatidylcholine (C18:0), treatment ratio versus control” value [10] was 0.97 *, the “Oleic acid (C18:cis[9]1), treatment ratio versus control” value [10] was 0.71 * and the “Palmitoleic acid (C16:cis[9]1), treatment ratio versus control” value [10] was 0.25 *. For the same molecule, the “TAG (C16:0, C16:1), treatment ratio versus control” value [10] was 0.51 * and the “trans-4-Hydroxyproline, treatment ratio versus control” value [10] was 0.74 *.

`C[C@H](CCC(=O)O)[C@H]1CC[C@H]2[C@@H]3CC[C@@H]4C[C@H](O)CC[C@]4(C)[C@H]3CC[C@]12C` [Lithocholic acid] was tested, and the “Eicosanoic acid (C20:0), treatment ratio versus control” value [1] was 1.81 *, the “Glucuronic acid, treatment ratio versus control” value [1] was 0.85 * and the “Glycerol, polar fraction, treatment ratio versus control” value [2] was 0.93^. The “Isopalmitic acid (C16:0), treatment ratio versus control” value [2] was 0.63 *, the “Kynurenic acid, treatment ratio versus control” value [2] was 0.75 * and the “Glucuronic acid, treatment ratio versus control” value [3] was 1. For the same molecule, the “myo-Inositol-2-phosphate, treatment ratio versus control” value [3] was 1.01, the “Glycerol, polar fraction, treatment ratio versus control” value [4] was 0.86^ and the “Isopalmitic acid (C16:0), treatment ratio versus control” value [4] was 0.54 *. The “Kynurenic acid, treatment ratio versus control” value [4] was 0.75 *, the “Glucuronic acid, treatment ratio versus control” value [5] was 1 and the “Lignoceric acid (C24:0), treatment ratio versus control” value [5] was 1.3 *. The “Sphingomyelin (d18:1, C16:0), treatment ratio versus control” value [5] was 1.09, the “Threonine, treatment ratio versus control” value [5] was 1.55 * and the “Glycerol, polar fraction, treatment ratio versus control” value [6] was 0.73 *. For the same molecule, the “Isopalmitic acid (C16:0), treatment ratio versus control” value [6] was 0.68 * and the “Kynurenic acid, treatment ratio versus control” value [6] was 0.71^.
